Source: PubChem BioAssay AID256 (DTP/NCI, 2004)
“And” between values parts separate entries of the source, which are not always exact repeats. Equal values may be shown once. Inconclusive results and toxic doses are left out. Rule for the calls: active = survival T/C of 150% or more; inactive = T/C below 125% in these data. Non-standard residues stand in square brackets, D forms with d. Residues, ends and D or L forms follow the SMILES beside them. ξ: configuration not given here. *: point of attachment. Cbz = O=C(OCc1ccccc1)*; ξP = O=C(O)C1CCCN1

System: CD2F1 mice, L1210 leukemia ip, survival T/C
Assay: NCI In Vivo Anticancer Drug Screen. Data for tumor model L1210 Leukemia (intraperitoneal) in CD2F1 (CDF1) mice
Settings: endpoint: mean survival time, higher = longer survival
Summary of the method: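 Mice carrying a transplanted tumor received test compound or vehicle alone. The value is the measurement in the treated group divided by that in the vehicle-treated control group.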

[1] = dose: 100.0 mg/kg/injection, schedule: Q04DX002 (ip), vehicle: saline with Tween-80
[2] = dose: 200.0 mg/kg/injection, schedule: Q04DX002 (ip), vehicle: saline with Tween-80
[3] = dose: 400.0 mg/kg/injection, schedule: Q04DX002 (ip), vehicle: saline with Tween-80
[4] = dose: 50.0 mg/kg/injection, schedule: Q01DX009 (ip), vehicle: saline with Tween-80
[5] = dose: 100.0 mg/kg/injection, schedule: Q01DX009 (ip), vehicle: saline with Tween-80
[6] = dose: 100.0 mg/kg/injection, schedule: Q04DX003 (ip), vehicle: saline with Tween-80
[7] = dose: 200.0 mg/kg/injection, schedule: Q04DX003 (ip), vehicle: saline with Tween-80
[8] = dose: 12.5 mg/kg/injection, schedule: Q04DX003 (ip), vehicle: other
[9] = dose: 200.0 mg/kg/injection, schedule: Q04DX003 (ip), vehicle: other
[10] = dose: 400.0 mg/kg/injection, schedule: Q04DX003 (ip), vehicle: saline with Tween-80
[11] = dose: 200.0 mg/kg/injection, schedule: Q01DX009 (ip), vehicle: saline with Tween-80
[12] = dose: 100.0 mg/kg/injection, schedule: Q04DX003 (ip), vehicle: saline
[13] = dose: 100.0 mg/kg/injection, schedule: Q01DX001 (ip), vehicle: saline
[14] = dose: 200.0 mg/kg/injection, schedule: Q01DX001 (ip), vehicle: saline
[15] = dose: 400.0 mg/kg/injection, schedule: Q01DX001 (ip), vehicle: saline

Measured: T/C

CCCCCCCCCCCCCCCC(=O)Nc1c(C)cccc1C
inactive: [1] 100 % of control | [2] 91 % of control | [3] 95 % of control

O=C(O)c1cnc2cc(Cl)ccc2n1
inactive: [4] 103 % of control | [5] 103 % of control | [6] 98 % of control | [7] 100 % of control

CCOC(=O)C(C(=O)c1ccccc1)c1cc(NS(=O)(=O)c2ccccc2)ccc1O (stereo unspecified)
inactive: dose: 132.0 mg/kg/injection, schedule: Q04DX003 (ip), vehicle: saline with Tween-80 115 % of control | [7] 106 % of control | dose: 300.0 mg/kg/injection, schedule: Q04DX003 (ip), vehicle: saline with Tween-80 103 % of control

CSc1nc(C)cc(=O)[nH]1
inactive: [1] 94 % of control | [2] 97 % of control | [3] 90 % of control

O=C(O)C1CCCCC1C(=O)O.[NH-]C1CCCCC1[NH-].[Pt+2] (stereo unspecified)
inactive: dose: 3.13 mg/kg/injection, schedule: Q04DX003 (ip), vehicle: other 106 % of control | dose: 6.25 mg/kg/injection, schedule: Q04DX003 (ip), vehicle: other 106 % of control | [8] 116 % of control
active: dose: 100.0 mg/kg/injection, schedule: Q04DX003 (ip), vehicle: other 187 % of control | [9] 168 % of control

CCCNC(C)(C)C(SS)c1ccc(C(F)(F)F)cc1 (stereo unspecified)
inactive: [9] 100 % of control | dose: 400.0 mg/kg/injection, schedule: Q04DX003 (ip), vehicle: other 90 % of control

CS(C)=O
inactive: dose: 46.87 mg/kg/injection, schedule: Q01DX009 (ip), vehicle: saline 95 % of control | dose: 93.75 mg/kg/injection, schedule: Q01DX009 (ip), vehicle: saline 100 % of control and 103 % of control | dose: 187.5 mg/kg/injection, schedule: Q01DX009 (ip), vehicle: saline 100 % of control and 101 % of control | dose: 375.0 mg/kg/injection, schedule: Q01DX009 (ip), vehicle: saline 95 % of control and 100 % of control | dose: 750.0 mg/kg/injection, schedule: Q01DX009 (ip), vehicle: saline 97 % of control and 100 % of control | dose: 1500.0 mg/kg/injection, schedule: Q01DX009 (ip), vehicle: saline 100 % of control | dose: 1.5 grams/kg/injection, schedule: Q01DX009 (ip), vehicle: saline 87 % of control and 100 % of control | dose: 3.0 grams/kg/injection, schedule: Q01DX009 (ip), vehicle: saline 95 % of control | dose: 6.0 grams/kg/injection, schedule: Q01DX009 (ip), vehicle: saline 89 % of control and 100 % of control

CN=C(NC)c1ccc(NC(=O)c2ccc(C(=O)Nc3ccc(C(=NC)NC)cc3)c(N)c2)cc1
active: dose: 2.25 mg/kg/injection, schedule: Q01DX Z (ip), vehicle: water 176 % of control | dose: 4.5 mg/kg/injection, schedule: Q01DX Z (ip), vehicle: water 176 % of control

O=C(c1ccccc1)c1cc(-c2ccccc2)nc2ccccc2c2ccccc2[nH]1
inactive: dose: 100.0 mg/kg/injection, schedule: Q01DX001 (ip), vehicle: Klucel (hydroxypropylcellulose) (HPC) 93 % of control | dose: 200.0 mg/kg/injection, schedule: Q01DX001 (ip), vehicle: Klucel (hydroxypropylcellulose) (HPC) 91 % of control | dose: 400.0 mg/kg/injection, schedule: Q01DX001 (ip), vehicle: Klucel (hydroxypropylcellulose) (HPC) 100 % of control

CC(=O)c1c(C)cc(=O)[nH]c1C
inactive: [1] 96 % of control | [2] 96 % of control | [3] 100 % of control

CCNC(=O)OCc1c(COC(=O)NCC)c(-c2ccc(Cl)c(Cl)c2)n2c1CCC2
inactive: dose: 0.78 mg/kg/injection, schedule: Q01DX009 (ip), vehicle: saline with Tween-80 101 % of control | dose: 1.56 mg/kg/injection, schedule: Q01DX009 (ip), vehicle: saline with Tween-80 108 % of control | [4] 91 % of control and 94 % of control and 111 % of control

CCCCCC(CC)OC(=O)Nc1cccc2ccccc12 (stereo unspecified)
inactive: [6] 89 % of control | [7] 101 % of control | [10] 100 % of control

c1ccc2cc(N=NNc3ccc4ccccc4c3)ccc2c1
inactive: [4] 94 % of control | [5] 98 % of control | [6] 95 % of control | [11] 100 % of control | [7] 92 % of control

O=S(=O)(O)Sc1ccccc1
inactive: dose: 25.0 mg/kg/injection, schedule: Q04DX003 (ip), vehicle: saline 97 % of control | dose: 50.0 mg/kg/injection, schedule: Q04DX003 (ip), vehicle: saline 97 % of control | [12] 98 % of control

CC(C)(C)OC(=O)NCCCCC(NC(=O)OC(C)(C)C)C(=O)O (stereo unspecified)
inactive: [13] 100 % of control | [14] 110 % of control | [15] 97 % of control

COc1ccc(-n2c(=O)c(N=Nc3ccccc3)c(O)n(-c3ccc(C)cc3)c2=S)cc1
inactive: dose: 100.0 mg/kg/injection, schedule: Q01DX001 (ip), vehicle: acetone 96 % of control | dose: 200.0 mg/kg/injection, schedule: Q01DX001 (ip), vehicle: acetone 94 % of control | dose: 400.0 mg/kg/injection, schedule: Q01DX001 (ip), vehicle: acetone 96 % of control

CCCOc1ccc(C(N)=S)c2ccccc12
inactive: dose: 100.0 mg/kg/injection, schedule: Q04DX002 (ip), vehicle: Klucel (hydroxypropylcellulose) (HPC) 105 % of control | dose: 200.0 mg/kg/injection, schedule: Q04DX002 (ip), vehicle: Klucel (hydroxypropylcellulose) (HPC) 102 % of control | dose: 400.0 mg/kg/injection, schedule: Q04DX002 (ip), vehicle: Klucel (hydroxypropylcellulose) (HPC) 105 % of control

O=C(CNC(=O)OCc1ccccc1)NCC(=O)N1CCCC1C(=O)O (stereo not drawn) (Cbz-Gly-Gly-[ξP]-OH)
inactive: [12] 98 % of control | dose: 200.0 mg/kg/injection, schedule: Q04DX003 (ip), vehicle: saline 96 % of control | dose: 400.0 mg/kg/injection, schedule: Q04DX003 (ip), vehicle: saline 101 % of control

COc1ccc(OCCOC(=O)Nc2ccc(Cl)cc2OC)cc1
inactive: [4] 89 % of control | [5] 93 % of control | [11] 93 % of control

BrC/C(=N\N1CCCCC1)c1ccc(Br)cc1
inactive: dose: 25.0 mg/kg/injection, schedule: Q01DX009 (ip), vehicle: saline sonified 100 % of control | dose: 50.0 mg/kg/injection, schedule: Q01DX009 (ip), vehicle: saline sonified 96 % of control | [13] 94 % of control | dose: 100.0 mg/kg/injection, schedule: Q01DX009 (ip), vehicle: saline sonified 96 % of control | [14] 102 % of control | [15] 95 % of control

OCC1OC(n2cnc3c2nnn2ccnc32)C(O)C1O (stereo unspecified)
inactive: dose: 100.0 mg/kg/injection, schedule: Q01DX009 (ip), vehicle: saline 112 % of control | dose: 200.0 mg/kg/injection, schedule: Q01DX009 (ip), vehicle: saline 106 % of control | dose: 400.0 mg/kg/injection, schedule: Q01DX009 (ip), vehicle: saline 115 % of control

CCOC/C(O)=C(\C#N)c1ccc(Cl)cc1
inactive: dose: 12.5 mg/kg/injection, schedule: Q01DX009 (ip), vehicle: other 94 % of control and 104 % of control | [8] 104 % of control | dose: 25.0 mg/kg/injection, schedule: Q01DX001 (ip), vehicle: other 93 % of control | dose: 25.0 mg/kg/injection, schedule: Q01DX009 (ip), vehicle: other 95 % of control and 100 % of control | dose: 25.0 mg/kg/injection, schedule: Q04DX002 (ip), vehicle: other 116 % of control and 111 % of control | dose: 25.0 mg/kg/injection, schedule: Q04DX003 (ip), vehicle: other 101 % of control | dose: 50.0 mg/kg/injection, schedule: Q01DX001 (ip), vehicle: other 100 % of control | dose: 50.0 mg/kg/injection, schedule: Q01DX009 (ip), vehicle: other 93 % of control and 95 % of control | dose: 50.0 mg/kg/injection, schedule: Q04DX002 (ip), vehicle: other 94 % of control and 99 % of control | dose: 50.0 mg/kg/injection, schedule: Q04DX003 (ip), vehicle: other 101 % of control

CCOC(=O)C(Cc1ccccc1)C1=NC(C)(C)CC(C)O1 (stereo unspecified)
inactive: dose: 100.0 mg/kg/injection, schedule: Q04DX003 (ip), vehicle: acetone 102 % of control | dose: 200.0 mg/kg/injection, schedule: Q04DX003 (ip), vehicle: acetone 109 % of control | dose: 400.0 mg/kg/injection, schedule: Q04DX003 (ip), vehicle: acetone 97 % of control

O=C1c2ccccc2C(c2ccc(Br)cc2)C1Br (stereo unspecified)
inactive: [6] 97 % of control | [7] 90 % of control | [10] 100 % of control
